In patent US10933141B2, “Formulations with reduced degradation of polysorbate” (Genentech, Inc., priority 2015, dated 2021):

Legend:
[1] = biological target: T1, porcine pancreatic lipase (PPL) (Sus scrofa, UniProt P00591); experiment: Subvisible particle formation after PPL digestion of PS20 (HIAC); format: physicochemical; details: 0.02% PS20; for effect on SVP formation (in words): 15 μg/mL PPL 4.5 hours, then 5° C. overnight, excipient 15% w/v (methionine 10 mg/mL)
T1 construct: purchased Sigma Aldrich Inc. (St. Louis, Mo.)
T1 sequence (P00591 1-450): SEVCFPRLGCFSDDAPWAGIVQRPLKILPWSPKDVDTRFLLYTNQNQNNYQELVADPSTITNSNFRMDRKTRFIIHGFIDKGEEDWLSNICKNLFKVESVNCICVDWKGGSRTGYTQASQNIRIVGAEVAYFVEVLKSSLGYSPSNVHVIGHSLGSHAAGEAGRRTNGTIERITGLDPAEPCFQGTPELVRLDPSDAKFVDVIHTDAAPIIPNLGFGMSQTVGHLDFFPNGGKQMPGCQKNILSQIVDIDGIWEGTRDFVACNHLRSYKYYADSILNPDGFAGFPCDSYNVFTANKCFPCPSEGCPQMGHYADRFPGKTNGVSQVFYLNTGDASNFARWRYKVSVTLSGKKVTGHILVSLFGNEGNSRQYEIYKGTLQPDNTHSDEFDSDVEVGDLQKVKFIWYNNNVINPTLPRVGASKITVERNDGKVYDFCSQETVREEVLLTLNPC
Experimental: Subvisible particles were measured using a HIAC 9703 particle counter equipped with an HRDL-150 detector and a 1 mL syringe. Performance of the instrument was verified with NIST-traceable 2 μm Polystyrene bead standards at 3000 counts/mL before each measurement session. The HIAC instrument was configured to a 10 mL/min flow rate, 0.1 mL tare volume, and 0.4 mL sample volume. The samples were analyzed using 4 runs of 0.4 mL sips, with the first run of each sample was discarded to prevent measurement error due to sample carryover. Results were reported as the average values for 1.4, 2, 5, 10, 15, and 25, 50 μm analysis filter sizes.
Several excipients were tested for their ability to protect PS20 against enzymatic hydrolysis including HP-α-CD, HP-β-CD, HP-γ-CD, SBE-β-CD, PVP, PEG 1500, sucrose, and methionine. Solutions of each excipient in pH 5.5 buffer were prepared containing a final concentration of 0.02% PS20 after enzyme addition. The concentration of HP-α-CD, HP-β-CD, HP-γ-CD, and SBE-β-CD in the excipient solutions was 106 mM. […] The remaining excipients (PVP, PEG 1500, sucrose) were added to 15% w/v to match the % w/v of HP-β-CD. Samples were digested with 15 μg/mL PPL enzyme for 4.5 hours at room temperature, followed by 30 minutes of heat inactivation at 85° C. Each sample was analyzed for PS20 concentration using high performance liquid chromatography with an inline evaporative light scattering detector. Samples were then placed at 5° C. overnight to allow for the formation of particles and were analyzed for visible and subvisible particles as described previously.
The effect of the HP-β-CD concentration at different PS20 concentrations on the enzymatic degradation of PS20 was assessed to identify optimal concentrations for inhibition of enzymatic PS20 degradation. To evaluate the dependence of PS20 degradation on HP-β-CD concentration, the PS20 content was determined using RP-ELSD for triplicate samples containing different HP-β-CD concentrations at various PS20 concentrations. Samples containing 0.005% (FIG. 14A), 0.02% (FIG. 14B), 0.1% (FIG. 14C), and 0.4% PS20 (FIG. 14D) were digested using 15 μg/mL of PPL enzyme for 4.5 hours at room temperature in protein-free samples containing no excipient (control), 0, 0.5, 5, and 15% (w/v) HP-β-CD. PPL was added to each of the treatment solutions at a ratio of 75 […], with an equivalent volume of buffer added to the control solutions to determine the effect of HP-β-CD to polysorbate ratio on enzymatic degradation. Digestion was stopped by heat inactivation in an 85° C. water bath for 30 minutes. Each sample was analyzed for PS20 concentration using high performance liquid chromatography with an inline evaporative light scattering detector as described above. Samples were then placed at 5° C. overnight to allow for the formation of particles and placed on ice during analysis for visible and subvisible particles as described above.

[2] = Oxidative PS20 degradation with AAPH, PS20 by RP-ELSD; format: physicochemical; details: 15% (w/v) excipient; 5 mM AAPH at 40° C. for 24 hours; n=3
Experimental: (§1) Polysorbate concentration was determined using reverse phase ultra-performance liquid chromatography using evaporative light scattering detection (RP-ELSD). Samples were analyzed using an Agilent 1100 series high performance liquid chromatography system (HPLC) fitted with a Waters Oasis MAX cartridge column (20×2.1 mm, 30 μm particle size). The HPLC system was set up with a switching valve directing column flow-through to either waste or a Varian 380-LC evaporative light scattering detector set to 100° C. The mobile phases consisted of 2% formic acid in water (Pump A) and 2% formic acid in isopropanol (Pump B). […] In order to quantitate the PS20 concentration, a standard curve was generated by injecting 20 μL of solutions containing between 0% w/v and 0.4% w/v PS20. For excipients which affected the migration time of PS20 through the column, PS20 standard curve solutions containing the relevant excipient were included in the analysis to facilitate accurate quantitation.
The ability of cyclodextrins to inhibit oxidative PS20 degradation was evaluated using 2,2′-Azobisisobutyramidinium (AAPH), which has been shown previously to degrade PS20 (Borisov et al., J. Pharm. Sci. 104:1005-1018 (2015)). […] Polysorbate 20 degradation was determined by RP-ELSD for samples oxidized with 5 mM AAPH at 40° C. for 24 hours containing no excipient (control), 15% (w/v) sucrose, and 15% (w/v) HP-β-CD.

[3] = biological target: T1, porcine pancreatic lipase (PPL); experiment: Kinetics of enzymatic PS20 degradation by PPL; format: biochemical; details: 15% sucrose; 0.02% (w/v) PS20; 15 μg/mL PPL, about 25° C., 180 hours
Experimental: as §1, with “B). The pump gradient was isocratic at 10% pump B during equilibration, linear to 20% pump B for 1 minute, isocratic at 20% pump B for 2.4 minutes, linear to 100% pump B for 0.1 minutes, isocratic at 100% pump B for 1.1 minutes, linear to 10% pump B for 0.1 minutes, and finally isocratic at 10% pump B for 1.9 minutes.” for “B).”, “quantitation. […]” for “quantitation.”

[4] = PPL 4.5 hours, particles greater than 2, 5, or 10μ

Row | Compound | effect on SVP formation (in words) [1] | decrease in relative percent PS20 [2] [%] | HP-β-CD concentration required to completely inhibit sub-visible particle formation [1, 4] [%] | HP-β-CD concentration required to partially inhibit sub-visible particle formation [1, 4] [%] | plateau of PS20 degradation curve [3] [%]
1 | 2-hydroxypropyl-α-cyclodextrin [HP-α-CD] | significant inhibitory effects | – | – | – | –
2 | 2-hydroxypropyl-β-cyclodextrin [HP-β-CD] | significant inhibitory effects | 3.6 | 15 | 0.5 | –
3 | OC[C@H]1O[C@@](CO)(O[C@H]2O[C@H](CO)[C@@H](O)[C@H](O)[C@H]2O)[C@@H](O)[C@@H]1O [sucrose, reference compound] | – | 9.8 | – | – | 44
